Values joined by “and” are separate entries in the source; they are usually repeats but may differ in a detail not shown here. Identical values can stand only once. Counter-ions that a name gives are not always drawn.
Key:
[1] = In vitro parallel artificial membrane permeability assay (PAMPA), blood–brain barrier permeability; conditions: for Papp: PAMPA
From the text: To evaluate the blood–brain barrier permeability and binding affinity of the developed PET probes[^18F]2 and [^18F]6, their respective nonradioactive versions were used. For blood–brain barrier permeability evaluation, we applied in vitro parallel artificial membrane permeability assay (PAMPA) and evaluated binding affinity via an inhibition assay to determine the IC50 value, as described in method section. We further measured the stability of both PET probes, [^18F]2 and [^18F]6, using radio thin layer chromatography (radio-TLC) over time, as also described in the method section. […] The blood–brain permeability was expressed through the permeability coefficient, P (10^–6 cm/s) and -logPe.

[2] = target: T1, human GSK-3β (Homo sapiens, UniProt P49841); experiment: GSK-3β kinase inhibition assay (ADP-Glo); format: biochemical
T1 construct: purchased Promega Corporation, Madison, WI
From the text: (§1) Phosphorylation of glycogen synthase kinase substrate was quantified using a luminescent ADP-Glo™ Kinase assay system (Promega Corporation, Madison, WI).

[3] = target: T2, human GSK-3α (Homo sapiens, UniProt P49840); experiment: GSK-3α kinase inhibition assay (ADP-Glo); format: biochemical
T2 construct: purchased Promega Corporation, Madison, WI
From the text: as §1

[4] = Radiochemical stability in human serum (rad-TLC); format: in vitro ADME; conditions: 37 °C
Protocol: (§2) The stability of PET probes [^18F]2 and [^18F]6 was measured in isotonic NaCl solution (0.9% NaCl) and mouse and human serums at 37 °C for up to 120 min by rad-TLC at 0 min, 30 min, 60 min and 120 min post incubation. The results obtained are presented in Fig. 5 and SI-Figs. S10–S15, SI-Table S1. […] The plausible explanation of the instability of [^18F]6 could be attributed to the covalent interaction of [^18F]6’s SO2F group with primary amines of amino acid residues present in the protein rich mouse and human serums. In fact, in an unrelated study, Zhao et al. reported formation of sulfonamide bond between sulfuryl fluoride and primary amine of conserved lysine residues of different kinases. […] Based on 2’s favorable blood–brain barrier permeability, nanomolar binding affinity and PET probe [^18F]2’s excellent stability in both mouse and human serums, further in vivo evaluations were performed only with PET probe [^18F]2.
(§3) Stability of [^18F]2 and [^18F]6 was assessed in isotonic NaCl solution and human and mouse serums. To perform this stability assay, 100 µL of [^18F]2 (~ 37.0 MBq) or 100 µL of [^18F]6 (~ 37.0 MBq) as in final formulation was added to 100 µL of human serum or mouse serum in a microcentrifuge tube. The resultant mixture was incubated at 37 °C for 120 min. To assess the radiochemical stability of the probes, a small aliquot (~ 0.5 µL) was taken out from the mixture in triplicate at 0 min, 30 min, 60 min and 120 min during incubation, and analyzed on a rad-TLC using 0.5:9.5 methanol: chloroform as a mobile phase using i-TLC to estimate the stability of [^18F]2 or [^18F]6 at different time points post-incubation. After Stability preparative processes initial i-TLC development was considered as 0 min.

[5] = Radiochemical stability in mouse serum (rad-TLC); format: in vitro ADME; conditions: 37 °C
Protocol: as §2, §3

[6] = Radiochemical stability in isotonic NaCl solution (rad-TLC); format: physicochemical; conditions: 37 °C
Protocol: as §2, §3

[7] = design: method as in PMID 33492962, doi:10.1002/ejoc.202201031; conditions: FVB/NJ mice; cited from earlier work
[8] = design: method as in PMID 33492962, doi:10.1002/ejoc.202201031; conditions: cited from earlier work
[9] = target: GSK-3β; design: method as in PMID 33840834, PMID 35295885, PMID 34423266; conditions: cited from earlier work
[10] = design: method as in PMID 33840834, PMID 35295885, PMID 34423266; conditions: 2 min post injection; Sprague Dawley rats; cited from earlier work
[11] = pH 7.4, Permeability coefficient, P, Average ± SD

T2 sequence (P49840 whole entry): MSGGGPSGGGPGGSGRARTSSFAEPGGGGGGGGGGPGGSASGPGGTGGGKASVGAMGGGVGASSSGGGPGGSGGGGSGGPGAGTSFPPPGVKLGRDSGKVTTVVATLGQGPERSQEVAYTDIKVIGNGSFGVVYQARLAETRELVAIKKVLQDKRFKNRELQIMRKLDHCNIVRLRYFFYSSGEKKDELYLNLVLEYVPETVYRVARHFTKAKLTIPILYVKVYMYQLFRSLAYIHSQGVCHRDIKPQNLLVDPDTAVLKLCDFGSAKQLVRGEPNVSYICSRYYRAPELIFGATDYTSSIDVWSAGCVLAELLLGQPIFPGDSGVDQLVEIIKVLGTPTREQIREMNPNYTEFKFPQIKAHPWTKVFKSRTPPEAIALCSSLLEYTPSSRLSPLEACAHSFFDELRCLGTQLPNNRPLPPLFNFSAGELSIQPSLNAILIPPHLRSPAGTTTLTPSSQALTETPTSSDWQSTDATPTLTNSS
T1 sequence (P49841 whole entry): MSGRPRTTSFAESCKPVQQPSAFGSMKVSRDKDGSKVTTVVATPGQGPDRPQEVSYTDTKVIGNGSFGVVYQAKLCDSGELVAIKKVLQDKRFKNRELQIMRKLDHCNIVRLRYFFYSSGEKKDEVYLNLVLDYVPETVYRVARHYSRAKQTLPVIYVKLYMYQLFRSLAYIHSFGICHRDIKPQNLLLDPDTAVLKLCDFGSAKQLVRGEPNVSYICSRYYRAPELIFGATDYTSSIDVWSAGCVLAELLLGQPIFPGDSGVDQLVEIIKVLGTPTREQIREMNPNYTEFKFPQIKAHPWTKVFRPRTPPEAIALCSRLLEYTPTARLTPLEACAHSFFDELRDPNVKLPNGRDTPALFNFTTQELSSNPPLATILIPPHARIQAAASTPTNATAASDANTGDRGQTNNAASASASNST

With `O=C(Nc1cnccc1-c1ccc(F)cc1)c1ccnc(NC(=O)C2CC2)c1` [Compound 2, 2-(cyclopropanecarboxamido)-N-(4-(4-fluorophenyl)pyridin-3-yl)isonicotinamide] the Papp ([1]; pH 7.4, Average ± SD) was 31.6 ×10⁻⁶ cm/s, the Papp [1, 11] was 36 ± 20 ×10⁻⁶ cm/s and the “Permeability coefficient, P, Average ± SD” value ([1]; pH 7.4) was 38 ± 20 (n = 3) 10^–6 cm/s.
With `O=C(Nc1cnccc1-c1ccc(OS(=O)(=O)F)cc1)c1ccnc(NC(=O)C2CC2)c1` [Compound 6, 4-(3-(2-(cyclopropanecarboxamido)isonicotinamido)pyridin-4-yl)phenyl sulfurofluoridate] the IC50 [2] was 44 ± 2.84 nM, the Papp ([1]; pH 7.4) was 8.75 ± 3.9 ×10⁻⁶ cm/s and the IC50 [3] was 55.7 ± 4.89 nM.
With `CC(C)NCC(O)COc1cccc2ccccc12` (centres unmarked) [Propranolol HCl, reference compound] the Papp [1, 11] was 32 ± 1 ×10⁻⁶ cm/s.
In the case of `O=C(Nc1cnccc1-c1ccc(OS(=O)(=O)[18F])cc1)c1ccnc(NC(=O)C2CC2)c1` [[^18F]6], the “Percentage of intact probe” value ([4]; 30 min) is reported as 92.46± 2.61% and 92.46 ± 2.6%, the “Percentage of intact probe” value ([4]; 60 min) is reported as 80.13± 14.24% and the “Percentage of intact probe” value ([4]; 120 min) is reported as 66.20 ± 6.38% and 66.20 ± 4.93%. The “Percentage of intact probe” value ([5]; 30 min) was 87.30 ± 8.99%, the “Percentage of intact probe” value ([5]; 60 min) was 81.17± 6.38% and the “Percentage of intact probe” value ([5]; 120 min) was 67.01 ± 4.93% and 67.01 ± 6.38%. For the same compound, the “Percentage of intact probe” value ([6]; 0 min) was 100 ± 0.0%, the “Percentage of intact probe” value ([6]; 30 min) was 100 ± 0.0% and the “Percentage of intact probe” value ([6]; 60 min) was 100 ± 0.0%.
For `O=C(Nc1cnccc1-c1ccc([18F])nc1)c1ccnc(NC(=O)C2CC2)c1` [[^18F]CNBI], the brain uptake [7] is listed as “poor” and the metabolic stability [8] is listed as “moderate”.
In the case of `COc1ccc(-c2ocnc2C(=O)NCCCc2ccc([18F])nc2)cc1Cl` [[^18F]OCM50], the Ki [9] is listed as 0.28 nM and the “standardized uptake value (SUV)” value [10] is listed as ~ 2.0.
